Laboratory results from patent publication US20260097047A1, “Small molecule inhibitors of the ribosome biogenesis factor NVL2” (Board of Regents, The University of Texas System, priority 2023, published 2026).
Entries after “also recorded” stand apart in the source; their conditions may differ.

Columns and labels:
60S biogenesis = assay: SNAP-tag labeling of existing and newly synthesized eL36 (60S) and eS17 (40S); assay type: cell-based, human; settings: 24 hours
Source text: The observed reduction in free 60S using polysome profiling could be the consequence of decreased 60S synthesis or accelerated 60S degradation, or a combination of the two. To distinguish between existing and newly synthesized 60S, we engineered HCT116 cells to express a C-terminal SNAP-tag on eL36, a ribosomal protein incorporated into the 60S subunit prior to NVL binding (39) or a control C-terminal SNAP-tag on a component of the small ribosomal subunit, eS17, to monitor 40S biogenesis (40). We first labeled existing eL36 or eS17 in cells with an Oregon green benzylguanine (green). Then, we treated cells for 24 hours with either vehicle or MM017 before adding a 647-SiR benzylguanine to label the pool of proteins synthesized over the 24-hour period and evaluated each polysome profile fraction for either existing or new proteins. […] MM017 treatment had no impact on the levels or fractionation pattern of existing eL36-SNAP.
Next, we examined the impact of MM017 on the subcellular localization of eL36-SNAP (60S) or eS17-SNAP (40S). As expected for mature ribosomes, existing eL36-SNAP was nearly completely cytoplasmic, and treatment with MM017 had no impact on its localization. In vehicle treated cells, newly synthesized eL36-SNAP was both nucleolar and cytoplasmic, reflecting its presence in pre-60S and mature ribosomes. […]

p53 and p21 = p53 and p21 protein levels in HCT116 cells; assay type: cell-based, human
Source text: Inhibition of 60S ribosome biogenesis is known to induce the stability and upregulation of p53, which could serve as a potential pharmacodynamics marker for MM017 in HCT116 cells. […] We used PRISM (Broad Institute) to evaluate the selectivity of MM017 across 902 cancer cell lines and then correlated this selectivity to 1,215 clinical and pre-clinical compounds in the PRISM database. […] These observations indicate that oxaliplatin and carmofur, like MM017, target ribosome biogenesis.

iHCT116 cells = assay: Growth inhibition of engineered iHCT116 cells; assay type: cell-based; settings: Homo sapiens
Source text: We recently described an isogenic forward genetic system to rapidly find mutations conferring resistance to compounds with anti-proliferative activity (32). This system uses an engineered colorectal cancer HCT116 cell line (iHCT116) in which the addition of indole acetic acid (IAA) initiates a ubiquitin-mediated degradation of the DNA mismatch repair protein MLH1, thereby providing a mechanism to temporarily increase mutation rates. We applied this strategy to MM017, a dibenzothiazepinone identified in a high-throughput small molecule screen for HCT116 cytotoxicity. […] We exposed barcoded iHCT116 cells, that had previously been cultured either with (Mutagenesis-on) or without IAA (Mutagenesis-off), to increasingly lethal doses of MM017.

[1] = Toxicity read-outs in efficacy study (body weight, blood counts, blood chemistry); assay type: in vivo; settings: 35 mg/kg IP twice a day for 21 days
Method: Having established the kinetics of MM927 mediated NVL inhibition in xenograft tumors, we administered 35 mg/kg MM927 IP twice a day for 21 days to mice harboring tumors derived from either HCT116 NVL wild type or NVL^R403W cells. […] Taken together, we concluded that the potent, and bioavailable analog MM927 reduces tumor growth in mouse xenografts by inhibiting NVL without toxicity.
Efficacy study: Five million parental HCT116 cells or HCT116 NVL^R403W in a volume of 0.1 mL were implanted in the right flank. Tumor volumes were measured every 2 to 4 days with calipers. Volume is calculated as [(L*W^2)*3.14]/6. When volumes reached ˜110 mm^3, treatment was started with 35 mg/kg MM927 or vehicle control (0.2 mL/mouse) twice a day for 21 days. Mice were euthanized at the end of the 21-day treatment period or when any tumor reached 2 cm in its largest diameter, in agreement with the approved animal protocol. At the end of treatment, blood and tumor tissue were collected for pharmacokinetic analysis, measurement of complete blood counts, and blood chemistry measurements as described. Serum alanine transaminase and blood urea nitrogen were analyzed using VITROS MicroSlide technology.

[2] = test system: p53 and p21 in HCT116 NVL^R403W tumors; assay: Pharmacodynamic study: p53 and p21 in HCT116 NVL^R403W xenograft tumors; assay type: in vivo, mouse; settings: 35 mg/kg IP, opposing flank of same mice
Method: Plasma exposure was dose-dependent up to 35 mg/kg (IP injection) reaching a maximum concentration at 17.86 μM. These levels exceed the anti-proliferative IC99 of MM927 in cells expressing either human or mouse NVL. In a subsequent pharmacodynamic (PD) study, we asked if we could assess on-target NVL inhibition via a subsequent p53 and/or p21 induction in tumor xenografts in mice treated with MM927. We implanted HCT116 NVL^WT and NVL^R403W cells subcutaneously on either flank of the mice and evaluated the levels of p53 and p21 in either tumor at various time points after IP administration of 35 mg/kg of MM927.
Pharmacodynamic study: Five million parental HCT116 cells or HCT116 NVL^R403W in a volume of 0.1 mL were implanted using a subcutaneous injection in the left and right side of four-to-eight-week-old male and female NSG mice, respectively. Tumor volumes were measured every 2 to 4 days with calipers. When the tumor diameter reached 0.5 cm in diameter, mice were dosed with 35 mg/kg MM927 or vehicle formulated as 10% DMSO/10% Kolliphor EL/10% Solutal/70% D5W and administered via the intraperitoneal route. At each time point (0, 3, 6, 12, 24 hours post dose), tumors were harvested and flash frozen for Western blot analysis for p53 and p21 as described.

Compound	effect on 40S subunits (eS17-SNAP) (60S biogenesis)	newly synthesized eL36-SNAP in polysome profile fractions (60S biogenesis)	p53 levels in parental HCT116 cells (p53 and p21)	p53 and p21 abundance in NVL^P307T cells (p53 and p21; NVL^P307T)	IC50 (iHCT116 cells) [nM]	body weight, red and white blood cells, hemoglobin, platelets, alanine transaminase, blood urea nitrogen versus vehicle [1]	overt toxicity [1]	p53 and p21 in NVL^R403W tumor [2]
COCCN1C(=O)c2ccccc2Sc2cc(NC(=O)c3ccoc3)ccc21 [MM017]	no impact on 40S subunits	reduced in the 60S, 80S, and polysome fractions	upregulates p53 levels; also recorded: increase in p53 at 6 hours post treatment; also recorded: dose-dependent increase in the levels of p53	no changes in the abundance of either protein	460	–	–	–
CC#CCN1C(=O)c2ccc(F)cc2Sc2cc(NC(=O)c3ccc4oc(=O)n(C)c4c3)ccc21 [MM927, N-(10-(But-2-yn-1-yl)-3-fluoro-11-oxo-10,11-dihydrodibenzo[b,f][1,4]thiazepin-7-yl)-3-methyl-2-oxo-2,3-dihydrobenzo[d]oxazole-5-carboxamide]	–	–	–	–	–	no significant difference	no signs of overt toxicity	no change in p53 and p21
